Source: ChEMBL document CHEMBL4715821, “Discovery of 4-ethoxy-7H-pyrrolo[2,3-d]pyrimidin-2-amines as potent, selective and orally bioavailable LRRK2 inhibitors” (Bioorg Med Chem Lett, 2018)

Legend:
[1] = molecular target: Insulin receptor-related protein (Homo sapiens) (UniProt P14616); test: Inhibition of wild-type human partial length INSRR (R950 to E1278 residues) expressed in bacterial expression system assessed as residual activity at 1 uM by Kinomescan method relative to control
[2] = molecular target: Nuclear receptor subfamily 1 group I member 2 (Homo sapiens, UniProt O75469); test: Inhibition of human PXR
[3] = In vivo inhibition of LRRK2 in Han-Wistar rat assessed as reduction in Ser935 phosphorylation in kidney at 10 to 100 mg/kg, po by Western blot analysis; assay type: functional; parameters: scale not given: the % may be the effect or the level left; settings: dose 10-100 mg/kg
[4] = In vivo inhibition of LRRK2 in C57BL6 mouse assessed as reduction in Ser935 phosphorylation in brain at 45 mg/kg, po after 1 hr by Western blot analysis; assay type: functional; parameters: scale not given: the % may be the effect or the level left
[5] = molecular target: Bone morphogenetic protein receptor type-1A (Homo sapiens) (UniProt P36894); test: Inhibition of wild-type human partial length BMPR1A (Q214 to I532 residues) expressed in bacterial expression system assessed as residual activity at 1 uM by Kinomescan method relative to control
[6] = molecular target: Mitogen-activated protein kinase kinase kinase 5 (Homo sapiens) (UniProt Q99683); test: Inhibition of wild-type human partial length ASK1 (E648 to S964 residues) expressed in bacterial expression system assessed as residual activity at 1 uM by Kinomescan method relative to control
[7] = molecular target: Calcium/calmodulin-dependent protein kinase kinase 2 (Homo sapiens) (UniProt Q96RR4); test: Inhibition of wild-type human partial length CAMKK2 (D65 to V471 residues) expressed in bacterial expression system assessed as residual activity at 1 uM by Kinomescan method relative to control
[8] = molecular target: CDK1/Cyclin A (Homo sapiens) (UniProt P06493+P20248); test: Inhibition of wild-type human full length CDK1 (M1 to M297 residues) /Cyclin A expressed in mammalian expression system assessed as residual activity at 1 uM by Kinomescan method relative to control
[9] = species: Homo sapiens; test: Inhibition of wild-type human full length CDK9 (M1 to F372 residues)/cyclin T1 expressed in bacterial expression system assessed as residual activity at 1 uM by Kinomescan method relative to control
[10] = molecular target: Ephrin type-A receptor 6 (Homo sapiens) (UniProt Q9UF33); test: Inhibition of wild-type human partial length EPHA6 (Y700 to E1046 residues) expressed in bacterial expression system assessed as residual activity at 1 uM by Kinomescan method relative to control
[11] = molecular target: Tyrosine-protein kinase ITK/TSK (Homo sapiens) (UniProt Q08881); test: Inhibition of wild-type human partial length ITK (R335 to L620 residues) expressed in bacterial expression system assessed as residual activity at 1 uM by Kinomescan method relative to control
[12] = molecular target: Serine/threonine-protein kinase 24 (Homo sapiens) (UniProt Q9Y6E0); test: Inhibition of wild-type human partial length MST3 (A30 to S311 residues) expressed in bacterial expression system assessed as residual activity at 1 uM by Kinomescan method relative to control
[13] = molecular target: Mitogen-activated protein kinase kinase kinase 10 (Homo sapiens) (UniProt Q02779); test: Inhibition of wild-type human partial length MLK2 (V52 to W380 residues) expressed in bacterial expression system assessed as residual activity at 1 uM by Kinomescan method relative to control
[14] = molecular target: Platelet-derived growth factor receptor alpha (Homo sapiens) (UniProt P16234); test: Inhibition of wild-type human partial length PDGFRA (V575 to D1002 residues) expressed in mammalian expression system assessed as residual activity at 1 uM by Kinomescan method relative to control
[15] = molecular target: Serine/threonine-protein kinase Sgk1 (Homo sapiens) (UniProt O00141); test: Inhibition of wild-type human partial length SGK1 (I60 to L431 residues) expressed in mammalian expression system assessed as residual activity at 1 uM by Kinomescan method relative to control
[16] = molecular target: Tyrosine-protein kinase Srms (Homo sapiens) (UniProt Q9H3Y6); test: Inhibition of wild-type human partial length SRMS (L208 to P488 residues) expressed in mammalian expression system assessed as residual activity at 1 uM by Kinomescan method relative to control
[17] = molecular target: Serine/threonine-protein kinase TAO3 (Homo sapiens) (UniProt Q9H2K8); test: Inhibition of wild-type human partial length TAOK3 (M1 to T316 residues) expressed in mammalian expression system assessed as residual activity at 1 uM by Kinomescan method relative to control
[18] = molecular target: Tyrosine-protein kinase Tec (Homo sapiens) (UniProt P42680); test: Inhibition of wild-type human partial length TEC (L341 to D620 residues) expressed in bacterial expression system assessed as residual activity at 1 uM by Kinomescan method relative to control
[19] = molecular target: Tyrosine-protein kinase TXK (Homo sapiens) (UniProt P42681); test: Inhibition of wild-type human partial length TXK (L238 to W527 residues) expressed in bacterial expression system assessed as residual activity at 1 uM by Kinomescan method relative to control
[20] = molecular target: Tyrosine-protein kinase receptor TYRO3 (Homo sapiens) (UniProt Q06418); test: Inhibition of wild-type human partial length TYRO3 (S497 to T814 residues) expressed in bacterial expression system assessed as residual activity at 1 uM by Kinomescan method relative to control
[21] = molecular target: Wee1-like protein kinase (Homo sapiens) (UniProt P30291); test: Inhibition of wild-type human partial length WEE1 (M291 to K575 residues) expressed in bacterial expression system assessed as residual activity at 1 uM by Kinomescan method relative to control
[22] = molecular target: Serine/threonine-protein kinase WNK2 (Homo sapiens) (UniProt Q9Y3S1); test: Inhibition of wild-type human partial length WNK2 (V47 to D482 residues) expressed in mammalian expression system assessed as residual activity at 1 uM by Kinomescan method relative to control
[23] = molecular target: Serine/threonine-protein kinase LATS1 (Homo sapiens) (UniProt O95835); test: Inhibition of wild-type human partial length LATS1 (Q678 to V1130 residues) expressed in bacterial expression system assessed as residual activity at 1 uM by Kinomescan method relative to control
[24] = molecular target: Receptor-interacting serine/threonine-protein kinase 3 (Homo sapiens) (UniProt Q9Y572); test: Inhibition of wild-type human partial length RIPK3 (M1 to Q307 residues) expressed in bacterial expression system assessed as residual activity at 1 uM by Kinomescan method relative to control
[25] = molecular target: Serine/threonine-protein kinase SIK3 (Homo sapiens) (UniProt Q9Y2K2); test: Inhibition of SIK3 (unknown origin) assessed as residual activity at 1 uM by Kinomescan method relative to control
[26] = molecular target: Testis-specific serine/threonine-protein kinase 6 (Homo sapiens) (UniProt Q9BXA6); test: Inhibition of SSTK (unknown origin) assessed as residual activity at 1 uM by Kinomescan method relative to control
[27] = molecular target: Non-receptor tyrosine-protein kinase TNK1 (Homo sapiens) (UniProt Q13470); test: Inhibition of wild-type human full length TNK1 (M1 to P661 residues) expressed in bacterial expression system assessed as residual activity at 1 uM by Kinomescan method relative to control
Chain of Non-receptor tyrosine-protein kinase TNK1 (Homo sapiens) (Q13470 whole entry, the tested form may be a part): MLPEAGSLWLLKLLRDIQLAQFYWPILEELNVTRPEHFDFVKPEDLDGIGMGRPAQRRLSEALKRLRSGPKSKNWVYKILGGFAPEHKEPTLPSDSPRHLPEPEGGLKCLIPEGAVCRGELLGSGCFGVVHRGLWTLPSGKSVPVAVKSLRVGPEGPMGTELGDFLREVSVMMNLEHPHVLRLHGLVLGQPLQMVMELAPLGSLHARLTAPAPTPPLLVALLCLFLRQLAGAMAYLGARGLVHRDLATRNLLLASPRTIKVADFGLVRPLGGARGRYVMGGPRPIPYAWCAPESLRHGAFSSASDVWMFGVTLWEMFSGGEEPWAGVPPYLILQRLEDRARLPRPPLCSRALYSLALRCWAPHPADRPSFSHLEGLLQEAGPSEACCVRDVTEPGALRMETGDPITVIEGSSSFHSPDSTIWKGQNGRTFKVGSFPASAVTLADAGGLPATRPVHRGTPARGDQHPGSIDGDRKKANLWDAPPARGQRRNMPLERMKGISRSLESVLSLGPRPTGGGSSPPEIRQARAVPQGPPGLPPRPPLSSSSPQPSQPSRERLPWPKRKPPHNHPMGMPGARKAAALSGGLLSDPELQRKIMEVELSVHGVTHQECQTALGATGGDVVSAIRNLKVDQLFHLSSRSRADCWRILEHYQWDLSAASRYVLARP

Chain of Ephrin type-A receptor 6 (Homo sapiens) (Q9UF33 whole entry, the tested form may be a part): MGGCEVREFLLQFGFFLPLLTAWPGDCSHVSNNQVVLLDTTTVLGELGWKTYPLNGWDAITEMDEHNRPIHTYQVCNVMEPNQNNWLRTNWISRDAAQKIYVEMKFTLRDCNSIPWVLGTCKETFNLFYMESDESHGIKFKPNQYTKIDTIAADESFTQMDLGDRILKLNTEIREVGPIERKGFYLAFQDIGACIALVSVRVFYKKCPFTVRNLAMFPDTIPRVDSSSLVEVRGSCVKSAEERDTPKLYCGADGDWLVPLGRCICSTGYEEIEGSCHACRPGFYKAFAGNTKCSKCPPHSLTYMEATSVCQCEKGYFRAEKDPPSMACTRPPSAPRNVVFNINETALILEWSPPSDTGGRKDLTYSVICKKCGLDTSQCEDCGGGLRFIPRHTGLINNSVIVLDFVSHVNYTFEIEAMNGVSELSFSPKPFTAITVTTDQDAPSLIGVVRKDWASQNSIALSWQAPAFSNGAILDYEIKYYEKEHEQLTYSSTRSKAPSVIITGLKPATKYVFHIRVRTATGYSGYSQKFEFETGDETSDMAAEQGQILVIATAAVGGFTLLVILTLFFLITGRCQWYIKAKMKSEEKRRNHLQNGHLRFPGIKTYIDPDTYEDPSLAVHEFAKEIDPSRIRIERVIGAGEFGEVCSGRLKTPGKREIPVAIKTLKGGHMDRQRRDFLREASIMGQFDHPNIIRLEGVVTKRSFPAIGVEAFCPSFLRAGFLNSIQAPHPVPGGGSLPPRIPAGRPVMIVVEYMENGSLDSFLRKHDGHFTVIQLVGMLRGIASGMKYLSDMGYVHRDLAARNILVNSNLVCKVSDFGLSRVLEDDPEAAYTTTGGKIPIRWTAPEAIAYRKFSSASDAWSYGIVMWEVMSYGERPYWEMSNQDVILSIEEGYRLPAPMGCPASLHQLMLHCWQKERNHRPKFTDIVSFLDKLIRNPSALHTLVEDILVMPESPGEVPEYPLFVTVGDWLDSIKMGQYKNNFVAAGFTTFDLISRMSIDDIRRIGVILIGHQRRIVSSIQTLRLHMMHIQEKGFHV
Chain of Tyrosine-protein kinase TXK (Homo sapiens) (P42681 whole entry, the tested form may be a part): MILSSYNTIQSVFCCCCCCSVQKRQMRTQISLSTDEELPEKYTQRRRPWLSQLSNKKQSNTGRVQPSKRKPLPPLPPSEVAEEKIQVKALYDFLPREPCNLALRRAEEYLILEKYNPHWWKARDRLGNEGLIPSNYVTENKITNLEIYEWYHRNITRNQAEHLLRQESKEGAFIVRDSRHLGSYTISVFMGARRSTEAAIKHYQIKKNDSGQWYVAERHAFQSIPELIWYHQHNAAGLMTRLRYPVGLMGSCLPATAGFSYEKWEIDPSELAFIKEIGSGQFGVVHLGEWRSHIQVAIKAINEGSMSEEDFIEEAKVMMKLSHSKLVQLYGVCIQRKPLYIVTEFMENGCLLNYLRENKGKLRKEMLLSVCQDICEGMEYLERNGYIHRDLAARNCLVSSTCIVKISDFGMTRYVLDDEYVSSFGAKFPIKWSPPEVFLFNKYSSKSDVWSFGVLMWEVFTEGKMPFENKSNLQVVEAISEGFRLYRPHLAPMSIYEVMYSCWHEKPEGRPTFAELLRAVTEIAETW
Chain of CDK1/Cyclin A (Homo sapiens) (P06493 whole entry, looked up, the tested form may be a part): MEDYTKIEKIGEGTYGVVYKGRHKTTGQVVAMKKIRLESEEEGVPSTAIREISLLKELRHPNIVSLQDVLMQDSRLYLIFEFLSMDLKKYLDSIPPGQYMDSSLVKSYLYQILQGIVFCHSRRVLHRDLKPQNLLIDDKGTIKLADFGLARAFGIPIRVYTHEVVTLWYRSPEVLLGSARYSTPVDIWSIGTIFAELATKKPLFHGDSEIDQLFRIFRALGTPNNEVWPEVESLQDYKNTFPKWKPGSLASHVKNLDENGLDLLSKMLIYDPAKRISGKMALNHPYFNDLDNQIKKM
Chain of CDK1/Cyclin A (Homo sapiens) (P20248 whole entry, looked up, the tested form may be a part): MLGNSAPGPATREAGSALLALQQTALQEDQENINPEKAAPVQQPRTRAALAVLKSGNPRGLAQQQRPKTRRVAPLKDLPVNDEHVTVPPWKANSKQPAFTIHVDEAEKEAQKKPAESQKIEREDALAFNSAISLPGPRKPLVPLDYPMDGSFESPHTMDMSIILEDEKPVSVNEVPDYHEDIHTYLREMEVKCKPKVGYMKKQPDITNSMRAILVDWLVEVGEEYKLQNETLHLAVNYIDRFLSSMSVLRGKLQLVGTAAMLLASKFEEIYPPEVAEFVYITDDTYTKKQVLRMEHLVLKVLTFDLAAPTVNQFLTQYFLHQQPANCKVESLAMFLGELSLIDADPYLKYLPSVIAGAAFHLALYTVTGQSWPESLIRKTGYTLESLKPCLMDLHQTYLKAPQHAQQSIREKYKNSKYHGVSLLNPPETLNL
Chain of Tyrosine-protein kinase receptor TYRO3 (Homo sapiens) (Q06418 whole entry, the tested form may be a part): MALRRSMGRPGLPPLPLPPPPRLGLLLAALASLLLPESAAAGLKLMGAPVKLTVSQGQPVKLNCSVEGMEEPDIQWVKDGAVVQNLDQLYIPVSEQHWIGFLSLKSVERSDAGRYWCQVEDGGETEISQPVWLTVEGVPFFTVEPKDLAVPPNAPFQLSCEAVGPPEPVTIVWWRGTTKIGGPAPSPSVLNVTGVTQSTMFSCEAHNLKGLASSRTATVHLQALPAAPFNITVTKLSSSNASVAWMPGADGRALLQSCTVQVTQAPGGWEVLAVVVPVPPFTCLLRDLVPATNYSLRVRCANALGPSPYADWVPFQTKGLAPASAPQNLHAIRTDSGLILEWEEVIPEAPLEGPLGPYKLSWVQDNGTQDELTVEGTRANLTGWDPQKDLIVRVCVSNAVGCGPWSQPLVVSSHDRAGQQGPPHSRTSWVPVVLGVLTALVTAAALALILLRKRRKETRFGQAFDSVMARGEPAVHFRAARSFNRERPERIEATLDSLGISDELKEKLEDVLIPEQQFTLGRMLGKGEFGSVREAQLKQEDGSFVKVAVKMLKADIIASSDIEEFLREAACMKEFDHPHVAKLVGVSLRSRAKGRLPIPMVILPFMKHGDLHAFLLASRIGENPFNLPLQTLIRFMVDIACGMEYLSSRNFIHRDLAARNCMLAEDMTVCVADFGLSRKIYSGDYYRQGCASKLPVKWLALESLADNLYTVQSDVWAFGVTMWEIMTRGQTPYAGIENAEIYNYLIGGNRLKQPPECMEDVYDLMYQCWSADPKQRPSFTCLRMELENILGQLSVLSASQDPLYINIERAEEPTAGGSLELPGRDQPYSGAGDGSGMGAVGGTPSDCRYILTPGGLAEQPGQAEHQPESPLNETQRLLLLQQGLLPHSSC
Chain of Serine/threonine-protein kinase 24 (Homo sapiens) (Q9Y6E0 whole entry, looked up, the tested form may be a part): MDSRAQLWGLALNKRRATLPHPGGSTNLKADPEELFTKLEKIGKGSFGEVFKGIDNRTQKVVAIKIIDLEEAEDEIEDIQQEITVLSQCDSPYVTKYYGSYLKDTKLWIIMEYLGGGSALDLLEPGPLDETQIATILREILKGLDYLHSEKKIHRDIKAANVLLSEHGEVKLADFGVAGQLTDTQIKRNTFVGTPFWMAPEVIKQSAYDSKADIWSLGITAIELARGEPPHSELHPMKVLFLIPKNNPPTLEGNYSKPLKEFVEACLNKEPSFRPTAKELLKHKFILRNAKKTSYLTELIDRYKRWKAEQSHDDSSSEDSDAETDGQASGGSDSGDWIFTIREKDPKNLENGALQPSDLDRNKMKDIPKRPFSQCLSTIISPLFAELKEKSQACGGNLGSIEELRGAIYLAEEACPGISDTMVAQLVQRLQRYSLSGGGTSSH
Chain of Serine/threonine-protein kinase Sgk1 (Homo sapiens) (O00141 whole entry, the tested form may be a part): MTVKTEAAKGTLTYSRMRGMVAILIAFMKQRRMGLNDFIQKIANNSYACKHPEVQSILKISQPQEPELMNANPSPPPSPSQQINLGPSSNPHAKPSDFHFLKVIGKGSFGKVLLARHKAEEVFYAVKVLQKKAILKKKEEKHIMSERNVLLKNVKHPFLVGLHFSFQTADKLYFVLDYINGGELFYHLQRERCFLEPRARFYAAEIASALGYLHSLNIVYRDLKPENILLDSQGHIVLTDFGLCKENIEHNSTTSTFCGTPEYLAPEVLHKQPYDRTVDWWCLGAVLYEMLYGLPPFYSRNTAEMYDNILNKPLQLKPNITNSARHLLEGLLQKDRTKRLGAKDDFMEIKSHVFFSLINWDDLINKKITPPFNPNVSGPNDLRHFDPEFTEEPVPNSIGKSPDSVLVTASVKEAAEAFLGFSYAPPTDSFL
Chain of Testis-specific serine/threonine-protein kinase 6 (Homo sapiens) (Q9BXA6 whole entry, the tested form may be a part): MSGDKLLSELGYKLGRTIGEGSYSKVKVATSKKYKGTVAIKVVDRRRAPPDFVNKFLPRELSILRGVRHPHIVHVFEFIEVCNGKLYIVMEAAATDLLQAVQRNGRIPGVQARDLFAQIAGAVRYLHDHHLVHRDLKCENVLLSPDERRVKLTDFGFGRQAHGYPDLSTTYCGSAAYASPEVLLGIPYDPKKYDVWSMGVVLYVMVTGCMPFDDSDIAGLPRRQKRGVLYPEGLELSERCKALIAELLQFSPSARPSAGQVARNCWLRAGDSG

Work on `CCOc1nc(Nc2ccc(C(=O)N3CCOCC3)cc2OC)nc2[nH]ccc12` yielded an Activity [1] of 2.52%, an EC50 [2] of over 50.1 µM and an Activity [3] of 100%. For the same molecule, the Activity [4] was 50%, the Activity [5] was 94% and the Activity [6] was 92.2%. For the same molecule, the Activity [7] was 81.6%, the Activity [8] was 91.4% and the Activity [9] was 91.6%. It also gave an Activity [10] of 100%, an Activity [11] of 99.8% and an Activity [12] of 97.4%. For the same molecule, the Activity [13] was 100%, the Activity [14] was 101% and the Activity [15] was 96.6%. The Activity [16] was 108%, the Activity [17] was 97.8% and the Activity [18] was 99.3%. It also gave an Activity [19] of 88%, an Activity [20] of 109% and an Activity [21] of 98.3%. It also gave an Activity [22] of 90.4%, an Activity [23] of 101% and an Activity [24] of 108%. The Activity [25] was 106%, the Activity [26] was 83.3% and the Activity [27] was 46.5%.
